Experimental data as given in PubChem BioAssay (NCI).
Several values for one entry are separate records, joined by “and”; a condition that tells them apart may be missing. Identical values can stand only once.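 Grown in 96-well plates, cells were treated for 48 hours with each compound at five concentrations. Insufficient inhibition: endpoint recorded as highest concentration tested. GI50 is the concentration that inhibits growth by half. TGI: total growth inhibition.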

Tests used:
Assay in all cases: inhibition of tumour cell growth, NCI panel, 48 h
[1] = system: COLO 205 colon
[2] = system: HOP-62 NSCLC
[3] = system: MDA-N
[4] = system: NCI/ADR-RES ovarian
[5] = system: PC-3 prostate
[6] = system: RXF 393 renal
[7] = system: SN12C renal
[8] = system: HOP-92 NSCLC
[9] = system: SF-295 CNS
[10] = system: HL-60(TB) leukemia
[11] = system: A498 renal

Structure (SMILES) | TGI [1] | TGI [2] | TGI [3] [µM] | TGI [4] [µM] | TGI [5] [µM] | TGI [6] [µM] | TGI [7] | TGI [8] | TGI [9] | GI50 [1] [µM] | GI50 [10] | TGI [10] | GI50 [2] [µM] | GI50 [8] [µM] | GI50 [4] [µM] | GI50 [6] [µM] | GI50 [9] [µM] | TGI [11] | GI50 [7]
S=c1c2cn[nH]c2nc2scc(-c3ccc(Cl)cc3)n12 | 65.3 µM | 40.1 µM | 26.2 | 31.2 | 29.8 | 17.5 | 32 µM |  |  |  |  |  |  |  |  |  |  |  | 
C=C(C(=O)OCC)C(=O)OCC | > 100 µM | > 100 µM | > 100 |  | > 100 | > 100 | > 100 µM | > 100 µM | > 100 µM |  |  |  |  |  |  |  |  |  | 
COc1cnc2c(c1)C(=O)c1c-2n(CCCN2CCOCC2)c(=O)c2cc(Cl)ccc12 | > 100 µM | 22.4 µM |  | > 100 |  | 28 |  | > 100 µM | 0.664 µM | 0.193 | 0.455 µM | > 100 µM | 0.274 | 32.7 | 0.259 | 0.332 | 0.239 |  | 
CCOC(=O)N1CCC(N[C@@H]2c3cc4c(cc3C(c3cc(OC)c(O)c(OC)c3)C3C(=O)OC[C@@H]32)OCO4)CC1 (stereo partly drawn) | 15.1 µM and 13.1 µM | 2.63 µM and 2.65 µM |  |  |  |  | 2.93 µM and 1.34 µM | 3.5 µM and 3.67 µM | 2.53 µM and 2.42 µM |  | 0.221 µM and 0.468 µM | 2 µM and 5.46 µM |  |  |  |  |  | 1.89 µM and 2.08 µM | 1.21 µM and 0.366 µM
COc1cc2c(cc1OC)C(C(c1ccccc1)c1ccccc1)N(C)CC2 (stereo not drawn) | 33.5 µM | > 100 µM |  | > 100 |  | 60.2 | > 100 µM | > 70.8 µM | > 100 µM |  |  | > 100 µM |  |  |  |  |  | > 100 µM | 
COC(C)(C)C1(O)CC[C@@H](C)CC1=O (stereo partly drawn) | > 100 µM | > 100 µM | > 100 |  | > 100 | > 100 | > 100 µM | > 100 µM | > 100 µM |  |  | > 100 µM |  |  |  |  |  | > 100 µM | 
NS(=O)(=O)c1ccc(NC(=S)/N=C/C2=C(O)c3ccccc3C2=O)cc1 | > 100 µM | > 100 µM | > 100 |  | > 100 | > 100 | > 100 µM | > 100 µM | > 100 µM |  |  | > 100 µM |  |  |  |  |  | > 100 µM | 
COc1cccc(N2C(Cl)C(=O)C2c2c[nH]c3ccccc23)c1 (stereo not drawn) | > 100 µM | > 100 µM |  |  |  | > 100 | > 100 µM | > 100 µM | > 100 µM |  |  | > 100 µM |  |  |  |  |  |  | 
O=C1CC2(CCC(O)(c3ccc4ccccc4c3)C(C(=O)c3ccc4ccccc4c3)C2)C(=O)c2ccccc2N1 (stereo not drawn) | > 100 µM | > 100 µM |  | > 100 | > 100 | > 100 | > 100 µM | > 100 µM | > 100 µM |  |  | > 100 µM |  |  |  |  |  | > 100 µM | 
O=C1OCC/C1=N/O | > 100 µM |  |  |  |  | > 100 | > 100 µM | > 100 µM | > 100 µM |  |  | > 100 µM |  |  |  |  |  | > 100 µM | 
CCOc1cc(/C=C2/C(C)=NN(c3cccc(Cl)c3)/C2=N/c2nc3ccccc3s2)ccc1O |  | > 100 µM |  | 55.9 | 43.5 | > 100 |  | 67.8 µM | 93.8 µM |  |  | 12.4 µM |  |  |  |  |  | 56.9 µM | 
COc1ccc(CCN(C)C2CCC(C#N)(c3ccc(OC)c(OC)c3)CC2)cc1OC (stereo not drawn) | 91.4 µM | > 100 µM |  |  |  | > 100 | > 100 µM | > 100 µM | > 100 µM |  |  | > 100 µM |  |  |  |  |  |  | 
O=C(NCP(=O)(Oc1ccccc1)Oc1ccccc1)OCc1ccccc1 | > 100 µM | > 100 µM |  | > 100 | > 100 |  | > 100 µM | > 100 µM | > 100 µM |  |  | > 100 µM |  |  |  |  |  |  | 
On1c(-c2ccccc2)c(-c2ccccc2N2CCCC2)c2ccccc21 | > 100 µM | > 100 µM |  |  |  |  | > 100 µM | > 100 µM | > 100 µM |  |  | > 100 µM |  |  |  |  |  | > 100 µM | 
CC1(C)OC[C@@H](O)[C@H](C#N)CO1 | > 100 µM | > 100 µM | > 100 |  | > 100 | > 100 | > 100 µM |  | > 100 µM |  |  | > 100 µM |  |  |  |  |  | > 100 µM | 
C[N+](C)([O-])CCOc1cc2c(c3ccccc13)-c1ccccc1C2=O | 32.3 µM | 69.6 µM |  | > 100 |  | 33.2 | 62.3 µM | > 68.5 µM | > 72.1 µM |  |  | 35.5 µM |  |  |  |  |  | 60.5 µM | 
O=C1C=C/C(=N\N=C(c2ccccc2)c2ccccc2)O1 | > 10 µM | > 10 µM | > 10 |  | > 10 | > 10 | > 10 µM | > 10 µM | > 10 µM |  |  | > 10 µM |  |  |  |  |  |  | 
